These results are taken from ChEMBL document CHEMBL1201862, “PubChem BioAssay data set” (2004).

Some test systems named below: 786-0; OVCAR-4; SW-620; NCI-H226; SNB-19; SF-268; SF-295; SK-MEL-2; TK-10; MOLT-4; KM12; CCRF-CEM; HCT-15; COLO 205; PC-3; A498; SNB-75; Hs-578T; MDA-N.
Experiment in all cases: growth of human tumour cells (NCI), 48 h

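How tested: cells in 96-well plates exposed to compound for 48 hours at five concentrations. At the GI50, growth is halved.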 Active and inactive are the calls of the source. Rule as the data show it: active = GI50 up to about 1.1 µM and inactive = higher.

Take `COC(=O)C1(C)C=C(Nc2ccccc2)C(=O)N1c1ccccc1` (stereo unspecified): the GI50 with 786-0, in the assay on OVCAR-4, with SW-620, with NCI-H226, in the assay on SNB-19 and with SF-268 was > 100 µM (inactive) each time. Moreover, the GI50 in the assay with SF-295, in the assay with SK-MEL-2, in the assay on TK-10, in the assay on MOLT-4, in the assay on KM12 and in the assay on CCRF-CEM was > 100 µM (inactive) throughout.
For the compound `O=c1ccc2ccc(O)c3c4c(O)ccc5ccc(=O)c(c1c23)c54`, the GI50 was 2.31 µM (inactive) in the assay with 786-0; 2.07 µM (inactive) in the assay with SW-620; 2.04 µM (inactive) with NCI-H226; 1.26 µM in the assay with HCT-15; 2.18 µM (inactive) in the assay on SNB-19; 2.69 µM (inactive) in the assay on SF-295. Besides, the GI50 is 1.45 µM (inactive) in the assay on SK-MEL-2; 1.91 µM (inactive) with COLO 205; 2.67 µM (inactive) with TK-10; 2.11 µM (inactive) in the assay on MOLT-4; 1.24 µM (inactive) in the assay with KM12; 0.71 µM (active) with CCRF-CEM.
In the case of `CC(C)(C)NC1C2CCC(C)(C1O)C2(C)C` (stereo unspecified), the GI50 with 786-0 is > 100 µM (inactive); in the assay on OVCAR-4, > 100 µM (inactive); in the assay on SW-620, > 100 µM (inactive); in the assay with HCT-15 it was over 100 µM; in the assay on SNB-19 it was > 100 µM (inactive); in the assay with SF-268 it was > 100 µM (inactive). Further, the GI50 in the assay with SF-295 was > 100 µM (inactive); in the assay on PC-3 it was > 100 µM (inactive); in the assay with SK-MEL-2 it was > 100 µM (inactive); in the assay with COLO 205, > 100 µM (inactive); in the assay on A498 it was 2.35 µM (inactive); in the assay on TK-10, > 100 µM (inactive). The GI50 was > 100 µM (inactive) in the assay with MOLT-4, 0.021 µM (active) with SNB-75 and > 100 µM (inactive) in the assay on KM12.
Turning to `N#Cc1cccc2c1Sc1ccccc1N2`, the GI50 was 30.2 µM (inactive) in the assay with 786-0; 20.7 µM (inactive) in the assay on SW-620; 29.3 µM (inactive) with NCI-H226; 23.6 µM with HCT-15; 0.397 µM (active) in the assay on Hs-578T; 33.1 µM (inactive) in the assay on SNB-19. The GI50 in the assay with SF-268 is 30.8 µM (inactive); in the assay with SF-295 it was 23.9 µM (inactive); in the assay with PC-3, 14.1 µM (inactive); with COLO 205 it was 19.8 µM (inactive); in the assay with A498, 14.8 µM (inactive); in the assay with TK-10, 17.1 µM (inactive). Also, the GI50 in the assay with MOLT-4 was 11.5 µM (inactive); in the assay on SNB-75, 1.77 µM (inactive); in the assay with KM12, 32.7 µM (inactive); in the assay with CCRF-CEM, 7.48 µM (inactive).
`Oc1ccc2c(c1)CC[N+]1=C2CCC2CCCC21` (stereo unspecified) [QUINDONIUM BROMIDE]: the GI50 in the assay with 786-0 was > 100 µM (inactive); in the assay with OVCAR-4, > 100 µM (inactive); in the assay on SW-620, > 100 µM (inactive); in the assay with NCI-H226, > 100 µM (inactive); in the assay with HCT-15, over 100 µM; with SNB-19, > 100 µM (inactive). The GI50 in the assay with SF-268, with SF-295, in the assay on SK-MEL-2, with COLO 205, in the assay with TK-10 and with SNB-75 was > 100 µM (inactive) throughout.
Regarding `Cn1c2ccccc2c2nc3ccccc3c(Cl)c21`, the GI50 in the assay with 786-0 was > 100 µM (inactive); in the assay with OVCAR-4, > 100 µM (inactive); with SW-620, > 100 µM (inactive); in the assay on NCI-H226, > 100 µM (inactive); with HCT-15, over 100 µM; in the assay with Hs-578T, > 100 µM (inactive). The GI50 in the assay with SNB-19, with SF-268, in the assay on SF-295, in the assay with PC-3, in the assay with SK-MEL-2 and in the assay on COLO 205 was > 100 µM (inactive) throughout. Further, the GI50 in the assay with A498 was > 100 µM (inactive); in the assay with TK-10, > 100 µM (inactive); with MOLT-4, > 100 µM (inactive); in the assay on SNB-75 it was 23.4 µM (inactive); in the assay with KM12, > 100 µM (inactive); in the assay on CCRF-CEM it was > 100 µM (inactive).
Consider `O=C1C=C/C(=N\N=C(c2ccccc2)c2ccccc2)O1`, for which the GI50 was > 10 µM (inactive) in the assay on 786-0; > 10 µM (inactive) in the assay with OVCAR-4; > 10 µM (inactive) in the assay on SW-620; over 10 µM in the assay on HCT-15; > 10 µM (inactive) in the assay on SF-268; > 10 µM (inactive) in the assay with SF-295. Besides, the GI50 in the assay with PC-3, in the assay on MDA-N, with COLO 205, in the assay with TK-10, in the assay on MOLT-4 and in the assay on SNB-75 was > 10 µM (inactive) each time. Further, the GI50 in the assay on KM12 is > 10 µM (inactive); in the assay with CCRF-CEM, 8.49 µM (inactive).
With `O=C(NC1CCCCC1)NS(=O)(=O)c1ccc2c(c1)CCC2` [GLYHEXAMIDE], the GI50 was > 100 µM (inactive) in the assay with 786-0; > 100 µM (inactive) with SW-620; > 100 µM (inactive) in the assay on NCI-H226; over 100 µM in the assay on HCT-15; > 100 µM (inactive) with SNB-19; > 100 µM (inactive) with SF-268. For the same compound, the GI50 in the assay with SF-295, in the assay with SK-MEL-2, in the assay on COLO 205, in the assay with TK-10, in the assay with MOLT-4 and in the assay with SNB-75 was > 100 µM (inactive) throughout. In addition, the GI50 in the assay on KM12 and with CCRF-CEM was > 100 µM (inactive) throughout.
Consider `COC(=O)[C@H]1CC(=O)C=C2CCCC21` (stereo partly specified), for which the GI50 with 786-0 is > 100 µM (inactive); in the assay on OVCAR-4 it was > 100 µM (inactive); with SW-620 it was > 100 µM (inactive); in the assay with HCT-15, over 100 µM; in the assay with SNB-19 it was > 100 µM (inactive); in the assay with SF-268, > 100 µM (inactive). In addition, the GI50 with SF-295, in the assay with SK-MEL-2, with COLO 205, with A498, with TK-10 and in the assay on MOLT-4 was > 100 µM (inactive) throughout. For the same compound, the GI50 with SNB-75, with KM12 and with CCRF-CEM was > 100 µM (inactive) each time.
On to `C=C1C(=O)O[C@H]2[C@H]3O[C@@H](C[C@@H]12)[C@](C)(O)CC[C@@H]1O[C@@]1(C)CCC[C@H]3C`, for which the GI50 in the assay with 786-0 is 11.7 µM (inactive); with OVCAR-4, 16.5 µM (inactive); with SW-620 it was 19.2 µM (inactive); in the assay with NCI-H226, 23.3 µM (inactive); in the assay on HCT-15, 16.9 µM; in the assay on Hs-578T, 30.3 µM (inactive). The GI50 in the assay with SNB-19 was 36.3 µM (inactive); with SF-268, 15.6 µM (inactive); with SF-295, 68.9 µM (inactive); in the assay with PC-3 it was 32 µM (inactive); in the assay with SK-MEL-2, 15.9 µM (inactive); in the assay with COLO 205, 16.4 µM (inactive). The GI50 in the assay with A498 was 23.6 µM (inactive); in the assay on TK-10, 17.1 µM (inactive); in the assay with MOLT-4, 30.3 µM (inactive); in the assay on SNB-75, 18.5 µM (inactive); in the assay with KM12 it was 20 µM (inactive); with CCRF-CEM, 11.4 µM (inactive).
